In EPA's CvTdb concentration-time database (doi:10.1093/toxsci/kfy020):

Tested on: rat
Experiment: concentration in plasma after dosing
Settings: dosed: Ondansetron, male, Sprague-Dawley

Cc1nccn1CC1CCc2c(c3ccccc3n2C)C1=O (stereo not given) [Ondansetron] gave a concentration in plasma (1 min, 1.0000000000 mg/kg, iv) of 16.2 µg/mL, a concentration in plasma (1 min, 4.0000000000 mg/kg, iv) of 37.1 µg/mL and a concentration in plasma (1 min, 8.0000000000 mg/kg, iv) of 104 µg/mL. For the same compound, the concentration in plasma (1 min, 20.0000000000 mg/kg, iv) was 175 µg/mL, the concentration in plasma (0.05 h, 1.0000000000 mg/kg, iv) was 0.781 µg/mL and the concentration in plasma (0.05 h, 4.0000000000 mg/kg, iv) was 3.05 µg/mL. The concentration in plasma (0.05 h, 4.0000000000 mg/kg, oral) was 0.07 µg/mL, the concentration in plasma (0.05 h, 8.0000000000 mg/kg, iv) was 6.28 µg/mL and the concentration in plasma (0.05 h, 8.0000000000 mg/kg, oral) was 0.1 µg/mL. The concentration in plasma (0.05 h, 20.0000000000 mg/kg, iv) was 17.6 µg/mL, the concentration in plasma (0.05 h, 20.0000000000 mg/kg, oral) was 0.491 µg/mL and the concentration in plasma (5 min, 4.0000000000 mg/kg, oral) was 0.244 µg/mL. It also gave a concentration in plasma (5 min, 8.0000000000 mg/kg, oral) of 0.249 µg/mL, a concentration in plasma (5 min, 20.0000000000 mg/kg, oral) of 1.11 µg/mL and a concentration in plasma (7 min, 1.0000000000 mg/kg, iv) of 0.42 µg/mL. It also gave a concentration in plasma (7 min, 4.0000000000 mg/kg, iv) of 1.48 µg/mL, a concentration in plasma (7 min, 8.0000000000 mg/kg, iv) of 3.24 µg/mL and a concentration in plasma (7 min, 20.0000000000 mg/kg, iv) of 10.1 µg/mL. It also gave a concentration in plasma (10 min, 4.0000000000 mg/kg, oral) of 0.171 µg/mL, a concentration in plasma (10 min, 8.0000000000 mg/kg, oral) of 0.298 µg/mL and a concentration in plasma (10 min, 20.0000000000 mg/kg, oral) of 0.808 µg/mL. It also gave a concentration in plasma (0.25 h, 1.0000000000 mg/kg, iv) of 0.231 µg/mL, a concentration in plasma (0.25 h, 4.0000000000 mg/kg, iv) of 0.83 µg/mL and a concentration in plasma (0.25 h, 8.0000000000 mg/kg, iv) of 1.86 µg/mL. For the same compound, the concentration in plasma (0.25 h, 20.0000000000 mg/kg, iv) was 5.55 µg/mL, the concentration in plasma (20 min, 4.0000000000 mg/kg, oral) was 0.0837 µg/mL and the concentration in plasma (20 min, 8.0000000000 mg/kg, oral) was 0.138 µg/mL. The concentration in plasma (20 min, 20.0000000000 mg/kg, oral) was 0.441 µg/mL, the concentration in plasma (0.5 h, 1.0000000000 mg/kg, iv) was 0.129 µg/mL and the concentration in plasma (0.5 h, 4.0000000000 mg/kg, iv) was 0.429 µg/mL. For the same compound, the concentration in plasma (0.5 h, 4.0000000000 mg/kg, oral) was 0.0491 µg/mL, the concentration in plasma (0.5 h, 8.0000000000 mg/kg, iv) was 0.96 µg/mL and the concentration in plasma (0.5 h, 8.0000000000 mg/kg, oral) was 0.092 µg/mL. The concentration in plasma (0.5 h, 20.0000000000 mg/kg, iv) was 2.93 µg/mL, the concentration in plasma (0.5 h, 20.0000000000 mg/kg, oral) was 0.288 µg/mL and the concentration in plasma (40 min, 4.0000000000 mg/kg, oral) was 0.0396 µg/mL. The concentration in plasma (40 min, 8.0000000000 mg/kg, oral) was 0.07 µg/mL, the concentration in plasma (40 min, 20.0000000000 mg/kg, oral) was 0.255 µg/mL and the concentration in plasma (0.75 h, 1.0000000000 mg/kg, iv) was 0.0726 µg/mL. It also gave a concentration in plasma (0.75 h, 4.0000000000 mg/kg, iv) of 0.256 µg/mL, a concentration in plasma (0.75 h, 8.0000000000 mg/kg, iv) of 0.597 µg/mL and a concentration in plasma (0.75 h, 20.0000000000 mg/kg, iv) of 1.86 µg/mL. For the same compound, the concentration in plasma (50 min, 4.0000000000 mg/kg, oral) was 0.0302 µg/mL, the concentration in plasma (50 min, 8.0000000000 mg/kg, oral) was 0.0579 µg/mL and the concentration in plasma (50 min, 20.0000000000 mg/kg, oral) was 0.197 µg/mL. The concentration in plasma (1 h, 1.0000000000 mg/kg, iv) was 0.0471 µg/mL, the concentration in plasma (1 h, 4.0000000000 mg/kg, iv) was 0.176 µg/mL and the concentration in plasma (1 h, 4.0000000000 mg/kg, oral) was 0.0235 µg/mL. The concentration in plasma (1 h, 8.0000000000 mg/kg, iv) was 0.379 µg/mL, the concentration in plasma (1 h, 8.0000000000 mg/kg, oral) was 0.0406 µg/mL and the concentration in plasma (1 h, 20.0000000000 mg/kg, iv) was 1.26 µg/mL. The concentration in plasma (1 h, 20.0000000000 mg/kg, oral) was 0.165 µg/mL, the concentration in plasma (1.25 h, 1.0000000000 mg/kg, iv) was 0.0311 µg/mL and the concentration in plasma (1.25 h, 4.0000000000 mg/kg, iv) was 0.112 µg/mL. The concentration in plasma (1.25 h, 8.0000000000 mg/kg, iv) was 0.246 µg/mL, the concentration in plasma (1.25 h, 20.0000000000 mg/kg, iv) was 0.813 µg/mL and the concentration in plasma (1.5 h, 4.0000000000 mg/kg, iv) was 0.0757 µg/mL. The concentration in plasma (1.5 h, 8.0000000000 mg/kg, iv) was 0.176 µg/mL, the concentration in plasma (1.5 h, 8.0000000000 mg/kg, oral) was 0.0214 µg/mL and the concentration in plasma (1.5 h, 20.0000000000 mg/kg, iv) was 0.561 µg/mL. For the same compound, the concentration in plasma (1.5 h, 20.0000000000 mg/kg, oral) was 0.0827 µg/mL, the concentration in plasma (2 h, 4.0000000000 mg/kg, iv) was 0.0383 µg/mL and the concentration in plasma (2 h, 8.0000000000 mg/kg, iv) was 0.0874 µg/mL. It also gave a concentration in plasma (2 h, 20.0000000000 mg/kg, iv) of 0.308 µg/mL, a concentration in plasma (2 h, 20.0000000000 mg/kg, oral) of 0.0468 µg/mL and a concentration in plasma (2.5 h, 8.0000000000 mg/kg, iv) of 0.0442 µg/mL. It also gave a concentration in plasma (2.5 h, 20.0000000000 mg/kg, iv) of 0.184 µg/mL, a concentration in plasma (3 h, 8.0000000000 mg/kg, iv) of 0.0233 µg/mL and a concentration in plasma (3 h, 20.0000000000 mg/kg, iv) of 0.101 µg/mL. For the same compound, the concentration in plasma (4 h, 20.0000000000 mg/kg, iv) was 0.0391 µg/mL.
